The values that follow come from US12496302B2, “Compositions and methods for the treatment and diagnosis of cancer” (The General Hospital Corporation, priority 2020, dated 2025).

SMILES strings stand for the structures.

Test [1] deals with γ-H2AX foci. As to the kind of experiment: γ-H2AX foci clearance after damage. The conditions noted are these: 2.5 μM/L YW-1842. In kind it is cell-based. As to the method: FIGS. 6F-6G show TRDMT1 inhibitor YW-1842 delays the repair of DSBs at the transcribed genome. (FIG. 6F) U2OS or MCF7 cells were treated with or without compound YW-1842 at the indicated concentration. The survival rate of these cells was shown (n=3, Mean±SD). (FIG. 6G) SCE WT cells were transfected with TA-KR and were cultured with 2.5 μM YW-1842 or not for 6 hours, γ-H2AX (n=3, 50 cells per replicated, Mean±SD) were stained and quantified.
Cells for immunofluorescence observation were fixed in 4% PFA (Affymetrix, 19943 1 LT) at room temperature for 15 min and further treated with 0.2% triton for 10 min. They were then blocked by 3% BSA (SIGMA, A-7030) at room temperature for 1 h. Primary antibody for RAD51 (ab63801, Abcam, 1:200)), RAD52 (sc-365341, Santa Cruz, CA, USA, 1:500), TRIM28 (ab10484, Abcam, 1:500), γH2AX ser139 (JBW301, 05-636, EMD Millipore, 1:200), were incubated with cells at 4° C. overnight. After washing with 0.05% PBS-Tween (PBST), the cells were incubated with secondary antibody for 1 h at room temperature.

In test [2] the test system is cancer cell lines (HST578, MBAMD231, HCC1937, HCC1954). Briefly: Cell survival (colony) assay with TRDMT1i alone, Example 19. In kind it is cell-based. As to the method:
FIGS. 14A-14C show TRDMT1i alone reduce cancer cell survival in a dose-dependent manner. (FIG. 14A) Survival rate of HR proficient (HR+) HST578 cancer cells with and without siBRCA1 and/or TRDMT1i YW-1842 at indicated dose. The survival rate of these cells was analyzed (n=3, Mean±SD). (FIG. 14B) Survival rate of MBAMD231 (HR+) and HCC1937 (HRD) cells. The survival rate of these cells was analyzed (n=3, Mean±SD). (FIG. 14C) Cell survival rate in different cancer cell lines via colony-forming assay with the treatment of Imatinib at indicated dose (n=3, mean+/−S.D.). Cell lines are listed in order with the expression level from SYCP2high to SYCP2low.
HCC1500, HCC1954, BT549, MCF7 and MDAMB468 were cultured in Roswell Park Memorial Institute (RPMI) 1640 Medium (Sigma, R8758) with 10% (vol/vol) fetal bovine serum (FBS, XY Cell Culture, FBS-500) at 37° C., 5% CO2. siBRCA1 (L-003461-00, Dharmacon) was transfected with Lipofectamine RNAiMax (Invitrogen; Carlsbad, CA, USA). PARPi Olaparib (AZD2281/Ku-0059436, Sellekchem, S1060) and Pol theta inhibitor Novobiocin (Sigma) were used.
Cells were seeded in each 6-cm dish and cultured as described above. They were treated with drugs with indicated dose in medium after seeding. After 7-10 days, colonies were fixed and stained with 0.3% crystal violet in methanol, and the number of colonies was counted manually.

Take `COc1cc2nc(-n3cc(-c4ccc(S(C)(=O)=O)cc4)cn3)nc(-c3ccsc3)c2cc1OC` [YW-1842, 6,7-dimethoxy-2-(4-(4-(methylsulfonyl)phenyl)-1H-pyrazol-1-yl)-4-(thiophen-3-yl)quinazoline]: in test [1], the “DNA repair efficiency (clearance of γ-H2AX foci after IR)” value is reported as “delayed clearance of γ-H2AX foci”. For the same compound, in test [2] (HCC1954 (HRD, high SYCP2)), the “cell killing of HCC1954” value is on record as “efficiently killed HCC1954”. For the same compound, the “cell survival, TRDMT1i alone” value in test [2] (HR-proficient HST578 cells) is recorded as “kills HR-proficient cancer cells HST578 in a dose-dependent manner”. In addition, the “TRDMT1i sensitivity with BRCA1 knockdown” value in test [2] (HST578 cells with siBRCA1) is given as “significantly increased”. In addition, the “cell killing across cancer cell lines by SYCP2 level and HR status” value in test [2] (cell lines ordered SYCP2high to SYCP2low) is “killed SYCP2-high cancer cell lines and HR deficient cells the most efficiently”.
